Tests used:
E. coli (ATCC-25992) = test: Gram-negative bacteria sepsis model (E. coli challenge), survival by Kaplan-Meier; format: in vivo, mice; settings: followed 2 days, P<0.01
Procedure: 1.2 Gram-Negative Bacteria Sepsis Model
Two groups of animals (twelve mice each) weighing ˜25 g were treated intraperitoneally with 0.75 or 1 mg/kg/day (for three days) of thymoquinone prepared in 10% DMSO; a control group (treated with only 10% DMSO) was also simultaneously run. Four hours after thymoquinone treatment, all groups were challenged with 2 μl/g E. coli (ATCC-25992, […] CFU/ml) prepared in normal saline. Mortality in treated groups was followed for 2 days, and survival (primary endpoint) was calculated using Kaplan-Meier analysis.

[1] = test system: parental and multidrug resistant tumor cells; settings: cited from earlier work
[2] = test system: sepsis induced by E. coli bacteria; test: Immunological serum analyses (ELISA) following E. coli administration; format: in vivo, mice; settings: 6 h after E. coli administration
Procedure: (§1) In another set of experiments and after 6 h of E. coli administration, animals were lightly anesthetized with ether, and blood samples were collected, centrifuged and the resultant plasma were stored at −80° C. and used within 48 h. The levels of TNF-α, IL-1α, IL-2 and IL-10 were determined using an ELISA technique. Important biochemical parameters including blood serum creatinine, blood urea nitrogen, alanine transferase (ALT), albumin, and total lactate dehydrogenase (LDH) and creatinine kinase (CK) were also assessed in treated animals using commercially available kits according to the manufacturer's directions.

[3] = test system: endotoxin (lipopolysaccharide, LPS Escherichia coli O111:B4) induced sepsis; test: Endotoxin sepsis model (LPS challenge), survival by Kaplan-Meier; format: in vivo, mice; settings: 4 h before 2 mg/kg LPS, followed 4 days, P<0.01
Procedure: 1.1 Endotoxin Sepsis Model (LPS Escherichia coli O111:B4)
Two groups of animals (ten mice each) weighing ˜25 g were treated intraperitoneally with 1 or 2 mg/kg (single dose) of thymoquinone prepared in 10% DMSO; a control group (treated with only 10% DMSO) was also simultaneously run. Four hours after thymoquinone treatment, all groups were challenged with 2 mg/kg endotoxin (lipopolysaccharide, LPS) prepared in normal saline. Mortality of groups was followed for 4 days, and survival (primary endpoint) was calculated using Kaplan-Meier analysis.

[4] = test system: sepsis caused by E. coli bacteria; test: Biochemical blood analyses following E. coli administration; format: in vivo, mice; settings: 6 h after E. coli administration
Procedure: as §1

[5] = PROWESS trial, compared to placebo; cited from earlier work
[6] = cited from earlier work

CC1=CC(=O)C(C(C)C)=CC1=O [thymoquinone, 2-isopropyl-5-methyl-1,4-benzoquinone]
protection efficacy against mortality in sepsis induced by Gram-negative bacteria (E. coli (ATCC-25992); 0.75 mg/kg/day i.p. for three days): about 90%
protection efficacy against mortality in sepsis induced by Gram-negative bacteria (E. coli (ATCC-25992); 1 mg/kg/day i.p. for three days): about 90%
cytotoxicity to parental and multidrug resistant tumor cells [1]: cytotoxic
TNF-α level ([2]; FIG. 5A): Significant reductions
IL-1α level ([2]; FIG. 5B): Significant reductions
IL-2 level ([2]; FIG. 5C): Significant reductions
IL-10 level ([2]; FIG. 5D): Significant reductions
protection efficacy against mortality in endotoxin induced sepsis ([3]; 1 mg/kg i.p. single dose): about 80%
protection efficacy against mortality in endotoxin induced sepsis ([3]; 2 mg/kg i.p. single dose): ~90%
blood urea nitrogen (kidney dysfunction biomarker) ([4]; FIG. 4A): Important reductions
serum creatinine (kidney dysfunction biomarker) ([4]; FIG. 4B): Important reductions
alanine transferase (liver dysfunction biomarker) ([4]; FIG. 4C): Important reductions
plasma albumin level ([4]; FIG. 4D): improvement in albumin level
total creatinine kinase (marker of tissue injury) ([4]; FIG. 4E): Important reductions
total lactate dehydrogenase (marker of tissue injury) ([4]; FIG. 4F): Important reductions

drotrecogin alfa
absolute decrease in mortality rate [5]: 6%
relative risk reduction (mortality) [5]: 19%
efficacy in sepsis patients ([6]; patients with a low risk of death or pediatric patients): not effective
28-day mortality rate ([6]; subgroup with recent surgery and single-organ dysfunction, placebo 14.1%, P=0.03): 20.7%
